These results are taken from US20130230486A1, “COMPOSITIONS AND METHODS TO INDUCE TARGETED APOPTOSIS” (priority 2010, published 2013).

Test [1] deals with Fas phospho-Y291. The test is described as follows: Tyrosine phosphorylation of Fas at tyrosine 291 by Western blot in MRC5 lung fibroblasts. The test is classed as cell-based, human. Conditions: pervanadate 150 μM, time dependent. As to the method:
PTPN13 has been shown in astrocytoma cells to dephosphorylate Fas at tyrosine 291. Little is known about the regulatory function of tyrosine phosphorylation of Fas. In another exemplary embodiment, to assess the effect of TNF-α and IFN-γ sensitization on the levels of Fas tyrosine phosphorylation, MRC5 lung fibroblasts were treated with TNF-α and IFN-γ for increasing amounts of time. Because TNF-α is known to increase tyrosine phosphorylation of many proteins, such as MAP kinases and AKT, within minutes following stimulation, the kinetics of TNF-α and IFN-γ induced tyrosine phosphorylation of Fas were assessed. MRC5 lung fibroblasts were treated with TNF-α (10 ng/ml) and IFN-γ (50 U/ml) for up to 48 hours. The cells were lysed and analyzed by western blot for phosphorylated Fas, using a phospho-specific antibody for Fas phosho-Y291. TNF-α and IFN-γ increased tyrosine phosphorylation of Fas at tyrosine residue 291 beginning at 18 hours. […] The pervanadate treated MRC5 cells were lysed and analyzed the tyrosine phosphorylation of Fas by western blotting. […] We then detected phosphorylated Fas by Western blot, using a phospho-specific antibody for Fas tyrosine residue 291. […]
FIG. 5: Inhibition of tyrosine phosphatase activity sensitizes lung fibroblasts to Fas-induced apoptosis. […] Caspase-8 activation was measured by a fluorescence based assay. […]

Test [2] has as its system caspase-8. The test is described as follows: Caspase-8 activation (Fas-induced apoptosis) in lung fibroblasts. The test is classed as cell-based, human. The following applies: MRC5. As to the method: To assess the effects of these cytokines on PTPN13 expression, non-diseased normal human lung fibroblasts (NHLF), fibrotic human lung fibroblasts (FHLF) and a fetal lung fibroblast cell line, MRC5 cells, were treated with TNF-α (10/ng/ml), IFN-γ (50 U/ml) or with both cytokines for 6 hours. PTPN13 expression was measured by quantitative PCR (FIG. 2A). The primary lung fibroblasts from normal and fibrotic lung had equivalent levels of PTPN13 expression to the MRC5 lung fibroblast cell line. […] Treatment with TNF-α alone caused a 40% decrease in PTPN13 expression. Combined exposure to TNF-α and IFN-γ decreased PTPN13 mRNA expression by 80%. Protein lysates from normal, fibrotic and MRC5 fibroblasts treated for 36 hours with TNF-α (10/ng/ml), IFN-γ (50 U/ml) or with both cytokines were then analyzed for PTPN13 expression. […]
In one exemplary method, to assess whether PTPN13 expression prevents Fas-induced apoptosis, PTPN13 expression was knocked-down using siRNA. […] Apoptosis was assayed by quantifying activation of caspase-3 and caspase-8 (FIG. 3C).
In death-receptor mediated apoptosis, formation of the DISC (Death-Inducing Signaling Complex) is essential for the initiation of apoptosis. […] The cells were lysed, immunoprecipitated with anti-Fas antibody, and co-immunoprecipitated FADD and caspase-8 were detected by immunoblotting. […]

In the case of pervanadate, in test [1], the “tyrosine phosphorylation of Fas (Y291)” value is “increased”. The “caspase-8 activity over unstimulated cells” value in test [2] (150 μM pervanadate 2 hour pre-treatment, then Fas-activating antibody 250 ng/ml) was 6 fold. Further, in test [2] (150 μM pervanadate alone), the “caspase-8 activity above untreated cells” value was 2 fold.
